Measured values as given in patent US10457707B2, “Substituted urea depsipeptide analogs as activators of the CLPP endopeptidase” (priority 2015, dated 2019).
Like-named read-outs stand apart in the source and are kept apart here. *1 amine or outer side, *2 acyl side, *3 side chain or, on linkers, in order; H or OH if unused. Where a SMILES comes first, the peptide text is derived from it. Bridges are numbered along the chain shown (N, C = ends). [ ]: non-standard residue; d: D form. The star is where a group is joined. ξ: configuration not given here. Phe(3,5-F2) = N[CH](Cc1cc(F)cc(F)c1)C(=O)O; NH(4-OCF3-phenyl) = FC(F)(F)Oc1ccc(N*)cc1; X14 = O=C(C1CC(OP(=O)(O)O)CN1[*:1])[*:2]; Pro(4S-Me) = C[C@@H]1CN[C@H](C(=O)O)C1; Pro(4R-Me) = C[C@H]1CN[C@H](C(=O)O)C1; NH(3,4-Me2-phenyl) = Cc1ccc(N*)cc1C; aThr = C[C@H](O)[C@H](N)C(=O)O; ξPro(4ξ-Me) = CC1CNC(C(=O)O)C1; X13 = c1nc2cc(N*)ccc2[nH]1; Pip = O=C(O)[CH]1CCCCN1; CO = O=C([*:1])[*:2]

Legend:
Sa-ClpP [1] = biological target: T1, Sa-ClpP (Staphylococcus aureus, UniProt Q2G036); test: ADEP displacement fluorescence polarization assay (FP probe ADEP 2591); type: binding
T1 construct: made in house; host or cells: E. coli BL21(DE3)
T1 sequence (Q2G036 1-195): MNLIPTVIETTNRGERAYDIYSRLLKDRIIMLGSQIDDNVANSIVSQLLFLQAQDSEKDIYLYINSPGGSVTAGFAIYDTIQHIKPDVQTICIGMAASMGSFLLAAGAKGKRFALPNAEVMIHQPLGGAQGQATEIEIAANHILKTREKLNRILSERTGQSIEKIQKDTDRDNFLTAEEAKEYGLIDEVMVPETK
Description: A fluorescence polarization (FP) assay was used to determine the activity of the disclosed compounds in displacing an ADEP analogue from ClpP. Briefly, the assay was performed in black 384 well, flat bottom, low volume plates (Greiner Bio-One, Monroe, N.C., catalog #784076). 20 μL of a pre-equilibrated (1 hr, room temperature) master mix (15 μM Sa-ClpP, 2% DMSO (v/v) and 50 nM FP probe in Tris*HCl, pH 8.0)) was pipetted into each well using a Well-Mate (Thermo Scientific, Waltham, Mass.). Sa-ClpP was prepared as described above for the ClpP activation assay. The FP probe was ADEP 2591 (structure shown above). The ADEP 2591 comprises a TAMRA fluorophore linked to a core based on modified ADEP 2378 via a short alkyl linker. Using pin transfer, approximately 0.4 μL (2% v/v DMSO) of each compound or control was added per well. After addition of compounds and controls, plates were allowed to incubate for an additional 120 minutes at room temperature. All assays were performed in triplicate. Polarization was monitored using an EnVision Multilabel reader (Perkin-Elmer, Waltham, Mass.) by exciting the FP probe at 530±25 nm, and monitoring fluorescence intensity of both parallel and perpendicular polarized light at 579±25 nm. Readout was in millipolarization units (mP).
Data collected was normalized to values obtained from positive (200 μM ADEP 2378) or negative (DMSO) controls. Curves were fit with non-linear regression using the equation “log [inhibitor] vs. Response-variable slope (four parameters)-symmetrical” in the program Prism 6 (GraphPad Software, La Jolla, Calif. USA, www.graphpad.com). The structures for ADEP 2378 and ADEP 2591 are shown above. ADEP 2378 is (E)-N—((S)-1-(((2R,6S,8aS,14aS,20S,23aS)-2,6-dimethyl-5,8,14,19,23-pentaoxooctadecahydro-1H,5H,14H,19H-pyrido[2,1-i]dipyrrolo[2,1-c:2′,1′-1][1]oxa[4,7,10,13]tetraazacyclohexadecin-20-yl)amino)-1-oxo-3-phenylpropan-2-yl)pent-2-enamide. ADEP 2591 is 5-(3-(3-((6S,9S,11aS,17S,20aS)-6,10-dimethyl-5,8,11,16,20-pentaoxo-17-((S)-2-((E)-pent-2-enamido)-3-phenylpropanamido)hexadecahydro-1H,5H,16H-dipyrrolo[2,1-c:2′,1′-1][1]oxa[4,7,10,13]tetraazacyclohexadecin-9-yl)propyl)thioureido)-2-(6-(dimethylamino)-3-(dimethyliminio)-3H-xanthen-9-yl)benzoate.

Sa-ClpP [2] = biological target: T1, Sa-ClpP; test: Sa-ClpP casein-BODIPY ClpP activation assay, method variant not marked in Table 5; type: biochemical, S. aureus
Description: The compounds were assayed in a casein digestion assay in order to determine their effect on ClpP activation. Briefly, the assay was carried out using S. aureus ClpP (“Sa-ClpP”) overexpressed in E. coli BL21(DE3) and purified in a two-step process. Purity of the protein was assessed through SDS PAGE analysis. EC50 evaluations were conducted in triplicate in a 20 μl assay format using a method adapted from Maurizi et al. (Methods Enzymol. (1994) 244:314-331). Each well contained 10 μM saClpP, 25 μg/ml BODIPY FL casein (Invitrogen Corporation, San Diego, Calif.), and test compound in concentrations ranging between 0-1000 μM in assay buffer (50 mM Tris pH 8, 200 mM KCl, and 1 mM TCEP). The reaction took place at 37° C. Fluorescence (excitation 485 nm; emission 528 nm) was measured in five minute intervals over a 45 min period using a BioTek HT fluorescence microplate reader (BioTek Instruments, Inc., Winooski, Vt.). Velocity of each reaction was calculated and data was fit to a dose response curve using GraphPad Prism® software (GraphPad Software, Inc., La Jolla, Calif.). EC50 is the effective concentration of compound which causes 50% activation of S. aureus ClpP in the foregoing BODIPY FL casein assay.
Alternatively, the assay was carried out using EnzCheck Protease Assay (Molecular Probes, Catalog # E6638). The assay was performed in black 384 well, flat bottom, low volume plates (Greiner Bio-One, Monroe, N.C., catalog #784076). 10 μL of Tris*HCl buffer, pH 8.0 with 0.01% Triton X-100 was pipetted into each well using a Well-Mate (Thermo Scientific, Waltham, Mass.). 0.4 μL test compounds or controls (2% DMSO v/v) were added to each well using a Biomek FX liquid handling robot (Beckman Coulter, Indianapolis Ind.). After addition of test compounds and controls, 10 μL of master mix containing 2 μM Sa-ClpP and 2 μM substrate (Bodipy-FL labeled casein) in Tris*HCl buffer, pH 8.0 with 0.01% (v/v) Triton X-100, was pipetted into each well. All assays were performed in triplicate, under linear velocity conditions. Increase in fluorescent signal following activation of Sa-ClpP by test compounds and controls was measured over time period of 30 mins using filters with excitation at 485±15 nm and emission at 520±25 nm on a PHERAstar FS Multilabel reader (BMG, Cary, N.C.). […] Data analysis was done by measuring rate of casein degradation over time (slopes). Computed degradation rates (slopes) were normalized to positive (ADEP4) or negative (DMSO) controls. Using nonlinear regression curve fitting EC50 values and % activation were determined using the equation “log [agonist] vs. Response-variable slope (four parameters)-symmetrical” in the program Prism 6 (GraphPad Software, La Jolla, Calif. USA, www.graphpad.com).
Substituted urea depsipetide analogs were synthesized as described above. The EC50 for ClpP activation was determined in the Sa-ClpP in casein-BODIPY assay as described above. The IC50 for ADEP displacement was determined in the ADEP displacement fluorescent polarization assay as described above; and the IC50 for growth inhibition was determined in the Vero cell cytotoxicity assay as described above. The compound number corresponds to the compound numbers used in Tables 1-4 and the experimental examples described above.

[3] = Cytotoxicity assay (CellTiter-Glo cell viability, 72 hours); type: cell-based; conditions: African green monkey; Vero cells, 72 hours, growth inhibition; read-out: Cytotoxicity IC50
Description: (§1) Cytotoxicity was determined by determining the effect of compounds on cell viability. Vero (kidney epithelial cells; ATCC CCL-81) monolayers were trypsinized and 5000 cells/well were seeded (10-15% confluency) into white-wall, flat bottom 96 well microwell plates (Corning) using enriched Dulbecco's Modified Eagle's Medium (Hyclone:DMEM/High Glucose) containing 10% Fetal Bovine Serum (ATCC-30-2020). Plates were incubated overnight at 37° C. in the presence of 5% CO2. Drug-free media was then replaced with media containing serial dilutions of test compound or DMSO carrier. After an additional 72 hours of incubation, viability was indirectly measured using the CellTiter-Glo® Luminescent Cell Viability (Promega) assay. Assay plates were read at peak emission wavelength of 560 nm using a EnVision® Multilabel Plate Reader (Perkin Elmer) or PHERAstar FS Multilabel reader (BMG, Cary, N.C.). […] USA, www.graphpad.com]. For each experiment, compounds were tested in duplicate. IC50 values presented are the range of two biologically independent experiments.

[4] = system: Vero (kidney epithelial cells; ATCC CCL-81); test: as above; type: cell-based; conditions: Vero cells, 72 hours, growth inhibition; read-out: Cytotoxicity IC50
Description: as §1

[5] = displacement of FP probe ADEP 2591 from Sa-ClpP, read-out: ADEP Displacement IC50
[6] = values without ** or † mark, assay variant not stated, read-out: ClpP Activation EC50

| Compound | IC50 (Sa-ClpP [1]; [5]) [µM] | EC50 (Sa-ClpP [2]; [6]) [µM] | IC50 (Sa-ClpP [1]) [µM] | further results |
| --- | --- | --- | --- | --- |
| sodium (R)-1-((2R,6S,9S,11aS,17S,18S,20aS)-17-((S)-3-(3,5-difluorophenyl)-2-(3-(p-tolyl)ureido)propanamido)-2,6,10,18-tetramethyl-5,8,11,16,20-pentaoxohexadecahydro-1H,5H,16H-dipyrrolo[2,1-c:2′,1′-l][1]oxa[4,7,10,13]tetraazacyclohexadecin-9-yl)ethyl phosphate [Compound 193] | 7.15 ± 0.33 | 0.77 ± 0.05 | – | – |
| C[C@@H]1C[C@H]2C(=O)O[C@@H](C)[C@H](NC(=O)[C@H](Cc3cc(F)cc(F)c3)NC(=O)Nc3ccc4[nH]cnc4c3)C(=O)N3CCC[C@H]3C(=O)N3CCCC[C@H]3C(=O)N[C@@H](C)C(=O)N2C1 [Compound 303, (S)-2-(3-(1H-benzo[d]imidazol-6-yl)ureido)-3-(3,5-difluorophenyl)-N-((2R,6S,8aS,14aS,20S,21S,23aS)-2,6,21-trimethyl-5,8,14,19,23-pentaoxooctadecahydro-1H,5H,14H,19H-pyrido[2,1-i]dipyrrolo[2,1-c:2′,1′-l][1]oxa[4,7,10,13]tetraazacyclo-hexadecin-20-yl)propanamide] ({X13-CO}-[Phe(3,5-F2)][aThr]P[Pip]A[Pro(4R-Me)]; ester 2-C) | – | 1.43 ± 0.03 | 11.1 ± 0.4 | IC50 at 72 h [3]: > 100 µM |
| C[C@H]1C[C@H]2C(=O)O[C@@H](C)[C@H](NC(=O)[C@H](Cc3cc(F)cc(F)c3)NC(=O)Nc3ccc(OC(F)(F)F)cc3)C(=O)N3CCC[C@H]3C(=O)N3CCCC[C@H]3C(=O)N[C@@H](C)C(=O)N2C1 [Compound 22, (S)-3-(3,5-difluorophenyl)-2-(3-(4-(trifluoromethoxy)phenyl)ureido)-N-((2R,6S,8aS,14aS,20S,21S,23aS)-2,6,21-trimethyl-5,8,14,19,23-pentaoxooctadecahydro-1H,5H,14H,19H-pyrido[2,1-i]dipyrrolo[2,1-c:2′,1′-l][1]oxa[4,7,10,13]tetraazacyclohexadecin-20-yl)propanamide] ({NH(4-OCF3-phenyl)-CO}-[Phe(3,5-F2)][aThr]P[Pip]A[Pro(4S-Me)]; ester 2-C) | – | – | – | IC50 [4]: 52.3 ± 7.7 µM |
| Cc1ccc(NC(=O)NC(Cc2cc(F)cc(F)c2)C(=O)NC2C(=O)N3CC(OP(=O)(O)O)CC3C(=O)N3CCCCC3C(=O)NC(C)C(=O)N3CC(C)CC3C(=O)OC2C)cc1C [Compound 192, sodium (2R,6S,8aS,14aS,16R,20S,21S,23aS)-20-((S)-3-(3,5-difluorophenyl)-2-(3-(3,4-dimethylphenyl)ureido)propanamido)-2,6,21-trimethyl-5,8,14,19,23-pentaoxooctadecahydro-1H,5H,14H,19H-pyrido[2,1-i]dipyrrolo[2,1-c:2′,1′-l][1]oxa[4,7,10,13]tetraazacyclohexadecin-16-yl phosphate] ({NH(3,4-Me2-phenyl)-CO}-[Phe(3,5-F2)]T[X14][Pip]A[ξPro(4ξ-Me)]; ester 2-C; configuration not given here) | – | – | 7.37 ± 0.28 | EC50 (Sa-ClpP [2]): 0.6 ± 0.02 µM |
| sodium (2R,6S,8aS,14aS,16R,20S,21S,23aS)-20-((S)-3-(3,5-difluorophenyl)-2-(3-(p-tolyl)ureido)propanamido)-2,6,21-trimethyl-5,8,14,19,23-pentaoxooctadecahydro-1H,5H,14H,19H-pyrido[2,1-i]dipyrrolo[2,1-c:2′,1′-l][1]oxa[4,7,10,13]tetraazacyclohexadecin-16-yl phosphate [Compound 191] | 8.56 ± 0.38 | 0.7 ± 0.03 | – | – |
